Laboratory results taken from patent US6423541B1, “Process for in vitro selection of high methol producing genotypes” (Council of Scientific&Industrial Reaearch, priority 2000, dated 2002).

System: callus mediated regenerants of Mentha arvensis cv. Himalaya
Assay: Survival of callus mediated regenerants from internodal explants at different concentrations of menthol
Assay type: cell-based
Conditions: for Survival after 24 hours Number / Survival after 7 days Number: 20 shoots tested per replication
Description: The Applicants selected the improved plant variety cv. Himalaya (U.S. Pat. PP 10,935: Kumar et al 1999) of Mentha arvensis L. as the base material for further improvement and selection. This variety is a hybrid between variety Gomti and Kalka and bears the high proliferating habit of Gomti and high menthol content, disease tolerant characters of Kalka. The explant material was collected from the field grown plants and surface sterilized by washing sequentially with 2% detergent, distilled water containing a few drops of Savlon (Johnson and Johnson, India), 0.1% acidified mercurie chloride and autoclaved distilled water before inoculation. About 1 cm long internode pieces were inoculated in the MS medium (Murashige and Skoog 1962) containing 0.2 μg ml^−1 concentrations of the auxin 2,4 dichlorophenoxyacetic acid (2,4-D) and 7 μg ml^−1 of the cytokinin 6-(γγ′- dimethylallyl amino) purine (2iP or 2aP) (Khanuja et al. 1998). This procedure has been highly efficient in generating variation in cultures of mints with greater frequencies. The cultures were grown at 25±2° C. and 400 to 600 lux light intensity with 16-h photoperiod. The regenerated shoots were separated 12 weeks latter the explant inoculation for rooting and/or screening.
The regenerated shoots (3-4 cm long, containing the apical bud and 2-3 nodes) separated from the 2,4D/2iP medium, were inoculated into MS basal medium containing vitamins, 100 mg l^−1 myo-inositol, 3% wv^−1 sucrose, 1.5% wv^−1 agar (Difco), with or without menthol (0 to 100 μg ml^−1, concentration stepped up by 10 μg serially in each treatment). On each kind of these media, 5 independent regenerated shoots were inoculated per flask; 4 flasks were inoculated per replication and each treatment was replicated 5 times, making the number of flasks to 20 and number of explants to 100 for each concentration of menthol. Like the earlier experiment this experiment was also conducted in the completely randomised design (CRD) fashion. Cultures were incubated and maintained at 25±2° C. and 400-600 lux light intensity with 16 hour photoperiod. The nature of initial responses in explants was recorded every 24 hours over a period of one week.

**Q.** Which shoot survival (at and above 80 μg ml^−1 menthol, after 7th day) does the source give for `CC1CCC(C(C)C)C(O)C1` (stereo not shown) [menthol] here?
**A.** No shoots were able to survive

**Q.** What about the “Survival after 24 hours %” value (menthol 10 μg ml^−1) of the same compound?
**A.** 100%

**Q.** What about the “Survival after 7 days %” value (menthol 10 μg ml^−1) of the same compound?
**A.** 100%

**Q.** What about the “Survival after 24 hours Number” value (menthol 10 μg ml^−1) of the same compound?
**A.** 20.0 ± 0.00

**Q.** And the “Survival after 7 days Number” value (menthol 10 μg ml^−1)?
**A.** 20.0 ± 0.00

**Q.** What about the “Survival after 24 hours %” value (menthol 20 μg ml^−1) of the same compound?
**A.** 100%

**Q.** And the “Survival after 7 days %” value (menthol 20 μg ml^−1)?
**A.** 100%

**Q.** And the “Survival after 24 hours Number” value (menthol 20 μg ml^−1)?
**A.** 20.0 ± 0.00

**Q.** And the “Survival after 7 days Number” value (menthol 20 μg ml^−1)?
**A.** 20.0 ± 0.00

**Q.** What about the “Survival after 24 hours %” value (menthol 30 μg ml^−1) of the same compound?
**A.** 100%

**Q.** What about the “Survival after 7 days %” value (menthol 30 μg ml^−1) of the same compound?
**A.** 100%

**Q.** What about the “Survival after 24 hours Number” value (menthol 30 μg ml^−1) of the same compound?
**A.** 20.0 ± 0.00

**Q.** And the “Survival after 7 days Number” value (menthol 30 μg ml^−1)?
**A.** 20.0 ± 0.00

**Q.** And the “Survival after 24 hours %” value (menthol 40 μg ml^−1)?
**A.** 100%

**Q.** What about the “Survival after 7 days %” value (menthol 40 μg ml^−1) of the same compound?
**A.** 88%

**Q.** What about the “Survival after 24 hours Number” value (menthol 40 μg ml^−1) of the same compound?
**A.** 20.0 ± 0.00

**Q.** And the “Survival after 7 days Number” value (menthol 40 μg ml^−1)?
**A.** 17.6 ± 0.66

**Q.** What about the “Survival after 24 hours %” value (menthol 50 μg ml^−1) of the same compound?
**A.** 85%

**Q.** And the “Survival after 7 days %” value (menthol 50 μg ml^−1)?
**A.** 45%

**Q.** And the “Survival after 24 hours Number” value (menthol 50 μg ml^−1)?
**A.** 17.0 ± 0.91

**Q.** What about the “Survival after 7 days Number” value (menthol 50 μg ml^−1) of the same compound?
**A.** 9.0 ± 0.41

**Q.** What about the “Survival after 24 hours %” value (menthol 60 μg ml^−1) of the same compound?
**A.** 70%

**Q.** What about the “Survival after 7 days %” value (menthol 60 μg ml^−1) of the same compound?
**A.** 10%

**Q.** And the “Survival after 24 hours Number” value (menthol 60 μg ml^−1)?
**A.** 14.0 ± 0.58

**Q.** And the “Survival after 7 days Number” value (menthol 60 μg ml^−1)?
**A.** 2.0 ± 0.41

**Q.** And the “Survival after 24 hours %” value (menthol 70 μg ml^−1)?
**A.** 45%

**Q.** And the “Survival after 7 days %” value (menthol 70 μg ml^−1)?
**A.** 1%

**Q.** And the “Survival after 24 hours Number” value (menthol 70 μg ml^−1)?
**A.** 9.0 ± 0.91

**Q.** What about the “Survival after 7 days Number” value (menthol 70 μg ml^−1) of the same compound?
**A.** 0.2 ± 0.26

**Q.** What about the shoot survival (menthol 70 μg ml^−1, within 24 hours of inoculation) of the same compound?
**A.** about 45%

**Q.** What about the death of shoots (menthol 70 μg ml^−1, within 7 days after inoculation) of the same compound?
**A.** ~99%

**Q.** And the “Survival after 24 hours %” value (menthol 80 μg ml^−1)?
**A.** 20%

**Q.** And the “Survival after 7 days %” value (menthol 80 μg ml^−1)?
**A.** 0%

**Q.** And the “Survival after 24 hours Number” value (menthol 80 μg ml^−1)?
**A.** 4.0 ± 0.58

**Q.** And the “Survival after 7 days Number” value (menthol 80 μg ml^−1)?
**A.** 0.0 ± 0.00

**Q.** And the “Survival after 24 hours %” value (menthol 90 μg ml^−1)?
**A.** 10%

**Q.** What about the “Survival after 7 days %” value (menthol 90 μg ml^−1) of the same compound?
**A.** 0%

**Q.** What about the “Survival after 24 hours Number” value (menthol 90 μg ml^−1) of the same compound?
**A.** 2.0 ± 0.40

**Q.** And the “Survival after 7 days Number” value (menthol 90 μg ml^−1)?
**A.** 0.0 ± 0.00

**Q.** And the “Survival after 24 hours %” value (menthol 100 μg ml^−1)?
**A.** 0%

**Q.** What about the “Survival after 7 days %” value (menthol 100 μg ml^−1) of the same compound?
**A.** 0%

**Q.** And the “Survival after 24 hours Number” value (menthol 100 μg ml^−1)?
**A.** 0.0 ± 0.00

**Q.** And the “Survival after 7 days Number” value (menthol 100 μg ml^−1)?
**A.** 0.0 ± 0.00
